{"source": "paper PMC4473678", "about": "“Swedish mutant APP-based BACE1 binding site peptide reduces APP β-cleavage and cerebral Aβ levels in Alzheimer’s mice” (Scientific Reports, 2015)", "key": {"recombinant BACE1": {"tested_on": "recombinant BACE1", "assay": "BACE1 activity (FRET) assay, cell-free", "type": "biochemical", "details": "for % of Inhibition of BACE1: FRET substrate Rh-EVNLDAEFK-quencher, dark, ex 545/em 585 nm, mean ± SD", "description": "The BACE1 inhibiting activity of APP-based BACE1 site binding peptides were determined using a fluorescence resonance energy transfer (FRET) assay (Pan Vera Co., Madison, WI), which employs a recombinant baculovirus-expressed BACE1 and a specific substrate (Rh-[…]-quencher) that is based on the APPswe mutation. This specific peptide substrate becomes highly fluorescent upon enzymatic cleavage. […] Then, 10 μL of BACE1 stop buffer (2.5 M sodium acetate) was added to the mixture. Fluorescence was read using a fluorometer, with excitation at 545 nm and emission at 585 nm."}, "brain of 5XFAD mice": {"tested_on": "brain of 5XFAD mice", "details": "mouse, in vivo", "experimental": "5XFAD mice at 2 months of age (n = 5, female) were treated intraperitoneally with biotin-labeled TAT-APPsweBBP or APPsweBBP (100 nmol/kg) daily for 5 days and then euthanized 4 h after the last injection. Brain tissues were removed, sectioned and stained with anti-BACE1 and anti-biotin antibodies.\nFixed cell cultures and brain sections were stained with indicated antibodies and then treated with donkey anti-mouse IgG conjugated with Alexa Fluor 488 (1:200) or goat anti-rabbit IgG conjugated with Alexa Fluor 594 (1:200; Invitrogen, Carlsbad, CA). The slides were then washed, mounted with DAPI medium (Vector Laboratories, Burlingame, CA) and visualized with an Olympus FV1000 confocal microscope (Tokyo, Japan)."}, "BACE1": {"tested_on": "BACE1", "details": "cited from earlier work"}, "[1]": {"molecular_target": "recombinant BACE1 protein (β-site APP cleaving enzyme 1) (UniProt P56817)", "sequence (P56817 46-501)": "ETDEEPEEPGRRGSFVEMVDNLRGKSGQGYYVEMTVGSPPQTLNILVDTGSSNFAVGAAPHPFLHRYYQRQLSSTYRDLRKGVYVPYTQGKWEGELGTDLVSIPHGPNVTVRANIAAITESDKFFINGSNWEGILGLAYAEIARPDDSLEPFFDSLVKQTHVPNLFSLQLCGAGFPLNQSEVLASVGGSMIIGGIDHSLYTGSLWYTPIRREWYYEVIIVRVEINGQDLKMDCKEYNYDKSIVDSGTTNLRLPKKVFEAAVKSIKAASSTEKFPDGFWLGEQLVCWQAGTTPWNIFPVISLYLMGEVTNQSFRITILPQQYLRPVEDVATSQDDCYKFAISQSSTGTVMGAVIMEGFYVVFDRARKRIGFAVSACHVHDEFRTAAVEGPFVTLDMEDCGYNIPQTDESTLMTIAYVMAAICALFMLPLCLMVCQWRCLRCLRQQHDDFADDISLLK"}, "treated patients": {"tested_on": "treated patients", "details": "Phase III; cited from earlier work", "text": "Presenilin 1 and 2 (PS1/PS2), two integral membrane proteins found in the endoplasmic reticulum and Golgi apparatus, are the major enzymatic targets for γ-secretase inhibition for the treatment of AD[5]. However, apart from their roles in AD, PS1/PS2 also controls the Notch signaling pathway responsible for cell proliferation and differentiation during embryonic development. PS1/PS2-null mice have massive neuronal loss, skeletal defects, underdeveloped subventricular areas and severe hemorrhages, and only a few types of PS1/PS2-null mouse models survive after birth. Other subst ..."}, "WT mice [2]": {"tested_on": "WT mice", "assay": "Radial arm water maze (RAWM), WT mice", "type": "in vivo, mouse", "details": "100 nmol/kg i.p. daily, 8 weeks, n = 10 per treatment"}, "Akt and MBP": {"tested_on": "Akt and MBP", "assay": "WB of myelin signaling (Akt, MBP) in brain homogenates, 5XFAD mice", "type": "in vivo, mouse", "details": "TAT-APPsweBBP, TAT and PBS groups compared", "description": "(§1) Transgenic AD mice [5XFAD; B6SJL-Tg(APPSwFlLon,PSEN1*M146L*L286V) 6799Vas/Mmjax] at 2.5 months of age were obtained from the Jackson Laboratory (Bar Harbor, ME) and housed and maintained in the Animal Facility of College of Medicine at University of South Florida (USF). The mice at 3.5 months of age were treated with TAT-APPsweBBP, TAT peptide (100 nmol/kg in 100 μL PBS) or PBS (100 μL) daily by intraperitioneal injection (i.p.) for eight consecutive weeks. The mice were subjected to behavioral testing after 8-week treatment and then euthanized for immunohistochemical, WB and ELISA analyses. Animals were housed and maintained at USF and all experiments were in compliance with protocols approved by USF Institutional Animal Care and Use Committee. All methods were performed in accordance with relevant guidelines and regulations.\nWB analysis was performed as previously described. Briefly, the proteins from the various cell-free suspensions, cell lysates and brain homogenates were electrophoretically separated using 10% bicine/tris gel (8 M urea) for proteins less than 5 kD or 10% tricine/tris gels for larger proteins. Electrophoresed proteins were transferred to polyvinylidene difluoride membranes (Bio-Rad, Richmond, CA), washed and blocked for 2 h at room temperature in Tris-buffered saline containing 5% (w/v) nonfat dry milk (TBS/NFDM). […]"}, "5XFAD mice [3]": {"tested_on": "5XFAD mice", "assay": "β-amyloid immunohistochemistry (4G8), 5XFAD mice", "type": "in vivo, mouse", "details": "100 nmol/kg i.p. daily, 8 weeks, RSC, EC and H regions, n = 10, 5 female/5 male", "description": "as §1\nFor paraffin brain tissues, we sectioned five coronal sections per region with a 100-μm interval and a thickness of 5-μm for retrosplenial cortex (RSC), entorhinal cortex (EC), and hippocampus (H), located at bregma −2.92 to −3.64 mm. […] Images were acquired as digitized tagged-image format files (to retain maximum resolution) using a BX60 microscope with an attached CCD camera system (DP-70, Olympus, Tokyo, Japan), and digital images were routed into a Windows PC for quantitative analyses using SimplePCI software (Hamamatsu Photonics, Hamamatsu, Shizuoka, Japan). […]"}, "5XFAD mice [4]": {"tested_on": "5XFAD mice", "assay": "Rotarod test, 5XFAD mice", "type": "in vivo, mouse", "details": "100 nmol/kg i.p. daily, 8 weeks, n = 10 per treatment", "description": "as §1\nThe rotarod task was also performed to exclude the possibility that positive effects of any treatment in RAWM test are due to improvements in sensorimotor ability. Mice were positioned on the rod (diameter 3.6 cm) of the equipment (Rotarod 7650 accelerating model; Ugo Basile, Biological Research Apparatus, Varese, Italy), which was initially set at 1.0 rpm. The rod was then allowed to steadily accelerate up to 40.0 rpm over a 3-min session and evaluation was made by monitoring latency to fall."}, "[5]": {"tested_on": "recombinant BACE1 protein", "assay": "Immunoprecipitation/WB of peptide-BACE1 binding, cell-free", "details": "10 μg biotin-labeled peptide with 10 μL recombinant BACE1 (1.0 U/mL), 4 h, 37 °C; anti-BACE1 IP/anti-biotin WB and reverse", "description": "In order to confirm that APPsweBBP containing the β-cleavage site could bind to and be consequently proteolyzed by BACE1, 10 μg of biotin-labeled TAT-APPsweBBP was incubated with or without 10 μL of recombinant BACE1 protein (1.0 U/mL) in BACE1 reaction buffer for 4 h at 37 °C and then subjected to WB analysis as described previously. In addition, we performed immunoprecipitation (IP) and WB analyses of this mixture with anti-BACE1 and anti-biotin antibodies to confirm that TAT-APPsweBBP, but not TAT, specifically binds to BACE1."}, "WT mice [6]": {"tested_on": "WT mice", "assay": "Rotarod test, WT mice", "type": "in vivo, mouse", "details": "100 nmol/kg i.p. daily, 8 weeks, n = 10 per treatment"}, "[7]": {"details": "phase II, suspended June 2013; cited from earlier work", "text": "Although these BACE1-null abnormalities are relatively mild, they are complex neurological phenotypes that raise a concern that complete inhibition or entire absence of BACE1 function may not be fre ..."}, "[8]": {"details": "peptide final concentration 20 μM, 90 min, room temperature"}}, "note": "“Also recorded” adds a separate entry of the source."}
{"molecule": "EISEVNLDAEFR", "values": [{"measurement": "BACE1 inhibition (result in words)", "setting": "recombinant BACE1; FRET assay, APPsweBBP or TAT-APPsweBBP at 0.05, 0.5, 5 and 20 μM (Fig. 1)", "value": "strongly inhibits BACE1 activity; also recorded: competitively inhibits the cleavage of commercial BACE1 substrate; also recorded: most effective BACE1 inhibitor; also recorded: much greater"}, {"measurement": "percentage inhibition of BACE1", "setting": "recombinant BACE1; FRET assay, peptide final concentration 20 μM, 90 min, room temperature", "value": "~ 40%"}, {"measurement": "% of Inhibition of BACE1", "setting": "recombinant BACE1; [8]", "value": "38.43 ± 1.01", "unit": "%"}, {"measurement": "BBB penetration (Fig. S4 legend)", "setting": "brain of 5XFAD mice", "value": "stopped at the capillary lumen"}, {"measurement": "biotin distribution, 5XFAD versus WT control mice", "setting": "brain of 5XFAD mice; ip", "value": "No noticeable differences in biotin distribution"}]}
{"molecule": "EVNLA*AEF [OM99-2]", "values": [{"measurement": "BBB crossing", "setting": "BACE1", "value": "too large to cross the BBB"}, {"measurement": "potency", "setting": "BACE1", "value": "high level of potency"}, {"measurement": "stability", "setting": "BACE1", "value": "not stable enough for use in therapeutic trials"}]}
{"molecule": "APPwt BACE1 binding site peptide (APPwtBBP)", "values": [{"measurement": "percent inhibition of BACE1 activity in a cell-free FRET assay (substrate Rh-…-quencher), peptide at 20 μM", "setting": "[1]", "value": 16.2, "unit": "%"}]}
{"molecule": "CC(C)[C@H](O)C(=O)N[C@@H](C)C(=O)N[C@@H]1C(=O)N(C)CCc2ccccc21", "note": "[semagacestat]", "values": [{"measurement": "activities of daily living and cognition", "setting": "treated patients", "value": "activities of daily living and cognition even worsened in the treated patients"}]}
{"molecule": "biotin-labeled TAT-APPsweBBP (human Swedish mutant APP BACE1 binding site peptide conjugated to the HIV-1 TAT protein-transduction domain) (from UniProt P05067 665-676)", "values": [{"measurement": "percent inhibition of BACE1 activity in a cell-free FRET assay (substrate Rh-…-quencher), peptide at 0.05, 0.5, 5 and 20 μM", "setting": "[1]", "value": "> 90", "unit": "%"}]}
{"molecule": "YGRKKRRQRRREISEVKMDAEFR [APPwtBBP fused with TAT]", "values": [{"measurement": "% of Inhibition of BACE1", "setting": "recombinant BACE1; [8]", "value": "21.01 ± 1.42", "unit": "%"}]}
{"molecule": "YGRKKRRQRRR [TAT (YGRKKRRQRRR), reference compound]", "values": [{"measurement": "RAWM entry-arm errors", "setting": "WT mice [2]", "value": "no difference among the various treatment groups"}, {"measurement": "Akt (total/phosphorylated) in brain homogenates", "setting": "Akt and MBP", "value": "differ between TAT-APPsweBBP-, TAT- and PBS-treated 5XFAD mice"}, {"measurement": "myelin basic protein (MBP) expression in brain homogenates", "setting": "Akt and MBP", "value": "differ between TAT-APPsweBBP-, TAT- and PBS-treated 5XFAD mice"}, {"measurement": "β-amyloid plaques / 4G8 immunoreactive area", "setting": "5XFAD mice [3]", "value": "no significant difference between TAT peptide and PBS groups"}, {"measurement": "rotarod latency to fall / motor performance", "setting": "5XFAD mice [4]", "value": "no differences between treatment groups on each day"}, {"measurement": "binding to BACE1 (co-immunoprecipitation)", "setting": "[5]", "value": "but not TAT peptide, binds to BACE1"}, {"measurement": "% of Inhibition of BACE1", "setting": "recombinant BACE1; [8]", "value": "3.32 ± 0.02", "unit": "%"}, {"measurement": "rotarod latency to fall", "setting": "WT mice [6]", "value": "no differences between treatment groups on each day"}]}
{"molecule": "EVKMDAEFR", "values": [{"measurement": "% of Inhibition of BACE1", "setting": "recombinant BACE1; [8]", "value": "4.89 ± 0.06", "unit": "%"}]}
{"molecule": "APPswe BACE1 binding site peptide (APPsweBBP) (from UniProt P05067 665-676)", "values": [{"measurement": "percent inhibition of BACE1 activity in a cell-free FRET assay (substrate Rh-…-quencher), peptide at 20 μM", "setting": "[1]", "value": 38.4, "unit": "%"}]}
{"molecule": "EISEVKMDAEFR", "values": [{"measurement": "% of Inhibition of BACE1", "setting": "recombinant BACE1; [8]", "value": "16.23 ± 0.29", "unit": "%"}]}
{"molecule": "TAT-APPwtBBP (APPwt BACE1 binding site peptide fused with TAT)", "values": [{"measurement": "percent inhibition of BACE1 activity in a cell-free FRET assay (substrate Rh-…-quencher), peptide at 20 μM", "setting": "[1]", "value": 21, "unit": "%"}]}
{"molecule": "EVNLDAEFR", "values": [{"measurement": "% of Inhibition of BACE1", "setting": "recombinant BACE1; [8]", "value": "14.32 ± 0.04", "unit": "%"}]}
{"molecule": "NC1=N[C@@]2(c3cc(NC(=O)c4ccc(F)cn4)ccc3F)COC[C@H]2CS1", "note": "[LY2886721]", "values": [{"measurement": "liver toxicity", "setting": "[7]", "value": "possible liver toxicity"}]}
